According to a melting point compilation (Tetko et al.; mined from patent text by program, amines drawn as free bases though some values may be those of a salt):
Residues, ends and D or L forms follow the SMILES beside them. *: point of attachment. Cbz = O=C(OCc1ccccc1)*

Row | Compound | melting point [°C]
1 | CCCCCCCCCCCCCCCCOC1=C(OCCCCCCCCCCCCCCCC)c2nc3c(Br)sc(Br)c3nc21 | 71.5
2 | CCCc1cc([N+](=O)[O-])cc2cc(C(=O)OCC)oc12 | 111
3 | CON1CCC2(CC1)C(O)=C(c1c(C)cc(C)cc1C)C(=O)N2OC1CCCCC1 | 115 to 118
4 | O=C=NCCC12CCCn3c1c(c1ccccc13)CCO2 (stereo not drawn) | 89 to 91
5 | O=c1ncc(Br)cn1CCO | 177 to 179
6 | OCCOc1ccc2cc[nH]c2c1 | 74 to 77
7 | Cc1cc2n[nH]c(=O)n2nc1-c1ccc(C(N)=S)cc1 | 325 to 329
8 | O=C(O)Cc1c(Cl)cc([N+](=O)[O-])cc1Cl | 206 to 207
9 | Nc1cc(-n2nc3ccc(Cl)cn3c2=O)c(F)cc1Cl | 247 to 250
10 | CCOCc1nc2c(N)nc(C)c(C)c2n1CCCC(N)=O | 199 to 200
11 | CCCCCCCCCCCCCCCCCNC(=O)OCC(CO)Oc1cc(C)on1 (stereo not drawn) | 77 to 79
12 | CCCS(=O)c1ncn(C(=O)N(CC)CC)n1 (stereo not drawn) | 50.5 to 51.5
13 | CCOC(=N)c1ccc(Cl)c(Cl)c1 | 62 to 64
14 | O=C1NCCSC1=NO | 233 to 235
15 | CC(CCO)NC1=NS(=O)(=O)c2sc(Cl)cc2N1 (stereo not drawn) | 199 to 203
16 | C=Cn1cc(C(=O)OCC)c(=O)c2cc(F)c(N3CCC(NC(=O)C(F)(F)F)C3)nc21 (stereo not drawn) | 280 to 282
17 | CCCCSc1cc(SCCCC)c2ccc3c(SCCCC)cc(SCCCC)c4ccc1c2c43 | 91 to 92
18 | CC(=O)OC(c1cscc1S(N)(=O)=O)C(C)F (stereo not drawn) | 92 to 94
19 | Cc1nc2c(-c3cccc(N4CCN(C)CC4)c3)cnn2c(N)c1-c1ccc(F)c(F)c1 | 216 to 219
20 | C[C@]12CCC3=C4CCC(=O)C=C4CC[C@H]3[C@@H]1CCC21OCCC1O (stereo partly drawn) | 180
21 | CCCCCCCCCCC#Cc1ccc2c(c1)c(C=O)cn2S(=O)(=O)c1ccc(C)cc1 | 84 to 86

Row | Compound | melting point [°C]
22 | COc1nc(N)nc2c1ncn2C1OC(CO)C(OC(=O)C(C)(C)C)C1O (stereo not drawn) | 113 to 115
23 | N#CC(N)=C(C#N)N=Cc1cnn(-c2c(Cl)cc(OC(F)(F)F)cc2Cl)n1 | 199 to 201
24 | CSc1cc(-n2ncc(-c3ccc(S(C)(=O)=O)cc3)c(-c3ccc(F)cc3)c2=O)ccc1F | 105 to 107
25 | Cn1ccc(=O)c(CO)c1 | 185 to 186
26 | O=C1CCCC12CNc1ccc(Cl)cc12 (stereo not drawn) | 201 to 202
27 | O=c1[nH]cnc2ccc(C(F)(F)F)cc12 | 209 to 211
28 | Nc1nc2c(ncn2[C@@H]2CO[C@H](CO)C2)c(=O)[nH]1 | 261 to 263
29 | COc1cc(CC#N)c([N+](=O)[O-])cc1C(F)(F)F | 103 to 104
30 | Cc1ccc(S(=O)(=O)N2CCC(c3ccc(O)cc3O)CC2)cc1 | 206 to 207
31 | COc1ccc2c(c1)CCCC2N(CC(=O)O)C(=O)C(C)CSC(C)=O (stereo not drawn) | 158 to 161
32 | CC1(C)CN=C(c2cnc(S(C)(=O)=O)c(Cl)c2)O1 | 102 to 105
33 | Cc1c(C(=O)O)nc2c(=O)[nH]c3ccc(-n4ccnc4)cc3n12 | > 250
34 | OC1COc2ccccc2C1 (stereo not drawn) | 188 to 193
35 | CC1(C)Cc2cccc(OC(=O)Cl)c2O1 | 85 to 87.5
36 | CC(C)(C)OC(=O)NC1N=C(c2ccccc2F)c2ccccc2N(CCO)C1=O (racemic) | 200
37 | O=C1c2ccccc2C(=O)N1OCF | 126 to 127
38 | CC(C)(C)N(C=O)N=NNC=O | 103 to 105
39 | O=C1CCOc2ccc(OCc3ccc4ccc(Cl)cc4n3)cc21 | 163 to 164
40 | CS(=O)(=O)N1CC1COc1ccc(C#N)cc1 (stereo not drawn) | 79 to 81
41 | N#Cc1c(Cl)c2cccnc2[nH]c1=O | 310
42 | CCOC(=O)c1ccc2c(c1)CC(CO)O2 (stereo not drawn) | 72 to 77

Row | Compound | melting point [°C]
43 | COc1ccc(-c2ccc(C(=O)NO)cc2)cc1OC1CCCC1 | 181 to 183
44 | N#CSc1nccnc1Cl | 70 to 71
45 | CCCCCCCCCCCCCCC(=O)C(=O)NC(C=CC(=O)O)CCCC (stereo not drawn) | 65 to 67
46 | Fc1cc(CNC(=S)NCC(F)(F)F)ccc1OCC(F)(F)F | 88 to 90
47 | Fc1ccc(C23CNCC(CO2)O3)cc1 (stereo not drawn) | 89
48 | CN(C)C(=O)ON=C1SC(=C(C#N)C#N)SC1(C)C | 175 to 177
49 | CCOC(=O)c1c(C(F)(F)F)nc(C(F)F)c(CO)c1CC | 59.5 to 60.5
50 | CC(=O)OC1CC2=CCC3C(CCC4(C)C(C(C)CCCC(C)C)CCC34)C2(C)CC1F (stereo not drawn) | 116 to 119
51 | CON=C(Cn1nnnc1S)C(=O)O | 84 to 86
52 | C=CCC(CO)(NC)c1ccc(Cl)c(Cl)c1 (stereo not drawn) | 78 to 78.5
53 | O=C(/C=C/c1cccc(F)c1)NC1CC1 | 90 to 91
54 | CCOC(=O)n1cc(C#N)c(-c2ccc(F)c(Cl)c2F)c1 | 132
55 | CCCN1c2cscc2CN(C)c2ccccc21 | 90 to 92
56 | CCc1cc(N(C)C(=O)N2CCN(c3cc(C)cc(C)c3)CC2)c(OC)nc1C | 86 to 87
57 | Cc1ccc(C(=O)N2CCc3nnc(NN=C4CCCCC4)cc3C2)cc1 | 208 to 210
58 | c1ccc(-c2cn3ncsc3n2)cc1 | 127 to 130
59 | CCCCN1C(=O)NC(=Cc2ccc(C=O)cc2)C1=O | 180
60 | COc1ccc(/C=C/c2nc3c([nH]2)c(=O)n(C)c(=O)n3C)c(OC)c1 | > 280
61 | CCCCCCNc1ccc([N+](=O)[O-])cc1C(=O)O | 161 to 163
62 | CN(C)C=NS(=O)(=O)c1cc2ccncc2s1 | 169 to 171

Other lines, results leading:

Row | melting point [°C] | Compound
63 | 192 to 193 | COc1ccc(CCc2nnc(-c3ccc4[nH]ncc4c3)o2)cc1C(F)(F)F
64 | 64 to 67 | CCCC(c1cccc(NC(=O)OCc2ccccc2)c1)c1c(O)c2c(oc1=O)CCCCCC2 (stereo not drawn)
65 | 84 to 85 | CC(C)Oc1ccc(CCCOc2ncccc2CC(=O)O)c(Oc2ncc(Cl)cc2Cl)c1
66 | 215 | O=C(c1cc(=O)c2cc3[nH]c(=O)oc3cc2[nH]1)N1CCC(Cc2ccccc2)CC1
67 | 172 | COc1ccccc1C1(O)OC(=O)C(c2ccc3c(c2)OCO3)=C1Cc1ccc2nsnc2c1 (stereo not drawn)
68 | 113 to 114 | C[C@H]1CN(C(=O)OC(C)(C)C)CCCN1S(=O)(=O)c1ccccc1[N+](=O)[O-]
69 | 190 | COc1ccc(-n2c(-c3ccc(N(C)C)cc3)nnc2C(C)O)cc1 (stereo not drawn)
70 | 203 to 205 | C[C@H](NC(=O)[C@H](C)NC(=O)OCc1ccccc1)C(=O)O (Cbz-Ala-Ala-OH)
71 | 165 | CCOc1ccc2c(c1)n(C1CCCCC1)c(=O)n2Cc1ccc(S(=O)(=O)NC(C)(C)CC)cc1
72 | 103 to 105 | O=c1oc(-c2ccccc2)cc(O)c1SCCCCc1ccccc1
73 | 88 to 90 | CCON=C(C(C)=NOCc1ccccc1C(=NOC)C(=O)NC)c1ccc(OC[Si](C)(C)c2ccc(F)cc2)cc1
74 | 178 to 180 | CC(C)(C#N)Cc1ccc2cc(CC(C)(C)C#N)ccc2c1
75 | 230 to 231 | Cc1ccc(-c2ccc3c(c2)C=C(C(=O)O)CC3)cc1
76 | 211 to 215 | NS(=O)(=O)c1ccc(NN=C2C(=O)Nc3ccc(C(=O)NCc4cccnc4)cc32)cc1
77 | 214 | c1ccc(-c2nnc3cc(N4CCOCC4)c(OCc4ccccn4)nn23)cc1
78 | 172 to 174 | CCCOc1cc2ccccc2c2c(=O)c(-c3ccc(OC)cc3)c[nH]c12
79 | 117 to 118 | CN(C(=O)C(C)(C)c1cc(C(F)(F)F)cc(C(F)(F)F)c1)c1cnc(NCCO)cc1-c1ccccc1Cl
80 | 184 to 185 | CC(=O)Nc1nc(CCc2ccc(NC(=O)OC(C)(C)C)cc2)c(C(=O)NCc2ccccc2)s1
81 | 160 to 161 | CCOC(=O)c1cccc2nc(OC)n(Cc3ccc(-c4ccccc4C#N)cc3)c12
82 | 107 to 108 | CCCN(CCC)CCCOc1ccc(S(=O)(=O)c2c(C)cn3ccccc23)cc1
83 | 170 to 171 | CN(C)c1ccc(CNc2ncnc3c2ncn3C2OC(CO)C(O)C2O)cc1 (stereo not drawn)

Row | melting point [°C] | Compound
84 | 128 to 129 | C=CCNC(=O)CC(=O)C=Cc1ccccc1[N+](=O)[O-]
85 | 157 to 159 | COc1cc(C(NC(=O)OC(C)(C)C)C(c2ccccc2)[N+](=O)[O-])ccc1Br (stereo not drawn)
86 | 174 to 175 | O=C1C(=O)c2ccccc2C2=C1SCC1(CCN(CC(O)COc3ccc(F)cc3)CC1)O2 (stereo not drawn)
87 | 122 to 123 | CC(=O)OC1CSC(Oc2cccc(-c3cccs3)c2)C(OC(C)=O)C1OC(C)=O (stereo not drawn)
88 | 189 to 190 | Cc1oc(-c2ccccc2)nc1/C=C/c1ccc(COc2ccccc2CC(=O)O)cc1
89 | 107 to 110 | CC(C)(C)C(=O)ON1C(C)(C)CC(OC(=O)c2ccccc2)CC1(C)C
90 | 237 to 238 | O=C(c1ccn2c1CSC2c1cccnc1)c1c[nH]c2ccccc12 (stereo not drawn)
91 | 85 to 95 | Cc1ccc2c(c1)S(=O)(=O)CC(COC(=O)Nc1ccccc1)(COC(=O)Nc1ccccc1)C2=O
92 | 78 to 81 | CC(c1ccc(OCCO)cc1)(c1ccc(OCCO)cc1)c1ccc(OCCO)cc1
93 | 155 to 158 | Cc1cc(Cc2cc(C(F)(F)F)cc(C(F)(F)F)c2)ccc1NC(=O)c1cccc(Cl)c1C(=O)N[C@@H](C)CS(C)(=O)=O
94 | 150 | CCOC(=O)CCP(Br)(c1ccccc1)(c1ccccc1)c1ccccc1
95 | 148 to 150 | CC(=O)Nc1ccc(F)c(-c2ccncc2)c1F
96 | 203 | N#CCc1ccc(-c2nc3ccccc3o2)cc1[N+](=O)[O-]
97 | 209 to 211 | CNc1nc(-c2cccc(NC(=S)c3ccc(C)cc3)c2)c2cc(OC)c(OC)cc2n1
98 | 220 to 222 | CC(=O)Nc1cc(O)c(C(=O)NC2CCN(Cc3ccccc3)CC2)cc1[N+](=O)[O-]
99 | 113 to 114 | CCOC(=O)c1c(-c2ccc(F)cc2)oc(-c2ccc(F)cc2)cc1=O
100 | 150 to 152 | CC(C)c1ccc(S(=O)(=O)c2ccccc2)cc1S(=O)(=O)NC1CCN(C(=O)c2ccc(C(C)(C)C)cc2)CC1
101 | 60 to 67 | Cc1cc(NNC(=O)OC(C)(C)C)c([N+](=O)[O-])c(N(Cc2ccccc2)Cc2ccccc2)n1
102 | 66 to 75 | CCOC(=O)c1cc2ccccc2nc1C(Cl)(Cl)Cl
103 | 215 to 217 | O=c1[nH]c(=Cc2cccs2)c(=O)[nH]c1=Cc1ccc(OCc2ccccc2)cn1
